How the values were obtained:
[1] = in vitro; settings: rat, liver microsomes
[2] = in vitro; settings: human, liver microsomes
[3] = in vitro; settings: mouse, liver microsomes
[4] = in vivo; settings: ICR, mouse, plasma, po, 10 mg/kg
[5] = in vivo; settings: ICR, mouse, plasma, po, 10 mg/kg; remark: listed apart in the source

| Compound | half-life at 1 h, 1 µM [1] [min] | half-life at 1 h, 1 µM [2] [min] | half-life at 1 h, 1 µM [3] [min] | concentration at 1 h [4] [ng/mL] | concentration at 4 h [5] [ng/mL] |
| --- | --- | --- | --- | --- | --- |
| Cn1c(=O)n(CCCO)c(=O)c2c1cc(/C=C/c1ccc(Cl)cc1)n2Cc1ccc(Cl)cc1 | 40 | 141 | 115 | – | – |
| Cn1c(=O)n(CCCO)c(=O)c2c1cc(C1CC1C1CCCC1)n2Cc1ccc(Cl)cc1 (stereo unspecified) | 1 | 12 | 4 | – | – |
| Cn1c(=O)n(CCCO)c(=O)c2c1nc(Oc1cccc(Cl)c1)n2Cc1ccc(Cl)cc1 | 4 | 117 | 12 | 802 | 398 |
